In ChEMBL document CHEMBL5512666, “Selenization of Small Molecule Drugs: A New Player on the Board” (J Med Chem, 2024):
Values after ≈ are worked out from the molar mass of the structure shown.

Columns and labels:
[1] = system: Human alphaherpesvirus 3; experiment: Antiviral activity against VZV infected in African green monkey Vero cells assessed as reduction in virus-induced cytopathic effect incubated for 3 days by MTT assay; type: functional, organism-based; conditions: Human alphaherpesvirus 3, Vero, 72 h
[2] = system: Human alphaherpesvirus 2; experiment: Antiviral activity against HSV-2 infected in African green monkey Vero cells assessed as reduction in virus-induced cytopathic effect incubated for 3 days by MTT assay; type: functional, organism-based; conditions: Human alphaherpesvirus 2, Vero, 72 h
[3] = system: Human alphaherpesvirus 1; experiment: Antiviral activity against HSV-1 infected in African green monkey Vero cells assessed as reduction in virus-induced cytopathic effect incubated for 3 days by MTT assay; type: functional, organism-based; conditions: Human alphaherpesvirus 1, Vero, 72 h
[4] = system: Human betaherpesvirus 5; experiment: Antiviral activity against […] infected in African green monkey Vero cells assessed as reduction in virus-induced cytopathic effect incubated for 3 days by MTT assay; type: functional, organism-based; conditions: Human betaherpesvirus 5, Vero, 72 h
[5] = system: OVCAR-3; experiment: Antiproliferative activity against human OVCAR-3 cells; type: functional, cell-based
[6] = Antiproliferative activity against human HEY A8 cells; type: functional, cell-based
[7] = system: ES-2; experiment: Antiproliferative activity against human ES2 cells; type: functional, cell-based
[8] = Antiproliferative activity against human OVCAR-10 cells; type: functional, cell-based
[9] = system: HEK-293T; experiment: Antiproliferative activity against HEK293T; type: functional, cell-based; conditions: Homo sapiens
[10] = Cytotoxicity against human MDA-MB-231 cells assessed as reduction in cell viability incubated for 96 hrs by MTT assay; type: toxicity, cell-based
[11] = system: Candida albicans; experiment: Antifungal activity against azole-resistant Candida albicans clinical isolate CaR assessed as fungal growth inhibition incubated for 24 hrs by CLSI protocol based broth microdilution method; type: functional
[12] = Cytotoxicity against human SGC cells assessed as reduction in cell viability incubated for 96 hrs by MTT assay; type: toxicity, cell-based
[13] = Cytotoxicity against human A549 cells assessed as reduction in cell viability incubated for 96 hrs by MTT assay; type: toxicity, cell-based
[14] = system: Candida albicans; experiment: Antifungal activity against azole-resistant Candida albicans clinical isolate 904 assessed as fungal growth inhibition incubated for 24 hrs by CLSI protocol based broth microdilution method; type: functional
[15] = system: Candida albicans; experiment: Antifungal activity against azole-resistant Candida albicans clinical isolate 901 assessed as fungal growth inhibition incubated for 24 hrs by CLSI protocol based broth microdilution method; type: functional
[16] = system: Candida albicans; experiment: Antifungal activity against azole-resistant Candida albicans clinical isolate 632 assessed as fungal growth inhibition incubated for 24 hrs by CLSI protocol based broth microdilution method; type: functional
[17] = system: Candida albicans; experiment: Antifungal activity against azole-resistant Candida albicans clinical isolate 17 assessed as fungal growth inhibition incubated for 24 hrs by CLSI protocol based broth microdilution method; type: functional
[18] = target: Lactoperoxidase (Homo sapiens, UniProt P22079); experiment: Inhibition of LPO (unknown origin)-mediated L-tyrosine nitration incubated for 20 mins in presence of H2O2 and sodium nitrite by RP-HPLC analysis
[19] = Antioxidant activity assessed as reduction in peroxynitrite mediated L-tyrosine nitration by measuring remaining activity relative to control; type: functional; parameters: concentration or dose not given beside the values
[20] = Antioxidant activity assessed as inhibition of peroxynitrite mediated L-tyrosine nitration in sodium phosphate buffer at pH 7.5 incubated for 7 mins by RP-HPLC analysis; type: functional
[21] = Cytotoxicity against mouse NIH3T3 cells measured after 72 hrs; type: toxicity, cell-based
[22] = system: A549; experiment: Cytotoxicity against human A549 cells measured after 72 hrs; type: functional, cell-based; conditions: A549, 72 h
[23] = Cytotoxicity against mouse L929 cells measured after 72 hrs; type: toxicity, cell-based
[24] = system: HeLa; experiment: Cytotoxicity against human HeLa cells measured after 72 hrs; type: functional, cell-based
[25] = system: HCT-116; experiment: Cytotoxicity against human HCT-116 cells measured after 72 hrs; type: functional, cell-based; conditions: HCT-116, 72 h
[26] = system: MHCC97H; experiment: Antiproliferative activity against human MHCC97H cells assessed as reduction in cell viability incubated for 48 hrs by MTT assay; type: functional, cell-based
[27] = Inhibition of TrxR (unknown origin) expressed in MHCC97H cells incubated for 24 hrs by colorimetric assay; type: cell-based, Homo sapiens
[28] = system: Candida albicans; experiment: Antifungal activity against Candida albicans SC5314; type: functional
[29] = system: Cryptococcus neoformans; experiment: Antifungal activity against Cryptococcus neoformans CGMCC 2.3161; type: functional
[30] = system: Aspergillus fumigatus; experiment: Antifungal activity against Aspergillus fumigatus CGMCC 3.7795; type: functional
[31] = system: Nakaseomyces glabratus; experiment: Antifungal activity against Candida glabrata; type: functional
[32] = system: Pichia kudriavzevii; experiment: Antifungal activity against Candida krusei AS 2.1045; type: functional
[33] = system: Candida tropicalis; experiment: Antifungal activity against Candida tropicalis CGMCC 2.3739; type: functional
[34] = system: Candida albicans; experiment: Antifungal activity against Candida albicans CPCC 400616; type: functional
[35] = system: Candida parapsilosis; experiment: Antifungal activity against Candida parapsilosis 22019; type: functional; conditions: Lodderomyces parapsilosis

Lactoperoxidase, sequence (P22079 whole entry): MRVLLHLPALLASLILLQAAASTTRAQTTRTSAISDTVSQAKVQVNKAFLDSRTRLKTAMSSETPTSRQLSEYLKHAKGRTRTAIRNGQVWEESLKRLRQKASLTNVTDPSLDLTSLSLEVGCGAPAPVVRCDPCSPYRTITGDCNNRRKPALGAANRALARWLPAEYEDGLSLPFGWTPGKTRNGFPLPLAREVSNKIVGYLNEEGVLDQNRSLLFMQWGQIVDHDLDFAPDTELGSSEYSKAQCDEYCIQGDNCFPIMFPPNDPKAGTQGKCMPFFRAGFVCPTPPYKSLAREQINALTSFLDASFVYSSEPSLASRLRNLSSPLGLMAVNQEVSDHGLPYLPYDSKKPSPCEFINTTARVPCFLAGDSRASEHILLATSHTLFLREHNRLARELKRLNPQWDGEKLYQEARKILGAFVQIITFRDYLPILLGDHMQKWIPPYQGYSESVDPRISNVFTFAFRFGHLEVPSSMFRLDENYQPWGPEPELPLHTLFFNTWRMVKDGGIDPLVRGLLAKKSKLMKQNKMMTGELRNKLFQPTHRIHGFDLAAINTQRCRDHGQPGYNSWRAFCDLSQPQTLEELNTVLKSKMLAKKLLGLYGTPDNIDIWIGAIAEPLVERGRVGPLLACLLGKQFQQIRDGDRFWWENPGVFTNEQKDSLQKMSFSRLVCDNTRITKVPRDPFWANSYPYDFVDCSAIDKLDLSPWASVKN

With `CNC1NC(N)=Nc2c1ncn2C[Se]C(CO)CO` (stereo unspecified) the EC50 [1] was > 100 µM, the EC50 [2] was > 100 µM and the EC50 [3] was > 100 µM. For the same compound, the EC50 [4] was 32.1 µM.
In the case of `N#C[Se]CCCOC(=O)CCCC[C@@H]1SC[C@@H]2NC(=O)N[C@@H]21`, the IC50 [5] is reported as > 100 µM, the IC50 [6] is reported as 22.3 µM and the IC50 [7] is reported as 91.6 µM. The IC50 [8] was > 100 µM and the IC50 [9] was > 100 µM.
Work on `Clc1ccc(-c2nn[se]c2-n2ccnc2)c(Cl)c1` yielded an IC50 at 96 h [10] of 14.7 µg/mL (≈ 42.7 µM), an MIC [11] of 1 µg/mL (≈ 2.91 µM) and an IC50 at 96 h [12] of 14.6 µg/mL (≈ 42.5 µM). The IC50 at 96 h [13] was 16.2 µg/mL (≈ 47 µM), the MIC [14] was 16 µg/mL (≈ 46.5 µM) and the MIC [15] was 32 µg/mL (≈ 93 µM). It also gave an MIC [16] of 16 µg/mL (≈ 46.5 µM) and an MIC [17] of 16 µg/mL (≈ 46.5 µM).
For `C[Se]C(=O)CCCC[C@@H]1SC[C@@H]2NC(=O)N[C@@H]21`, the IC50 [5] was 22.3 µM, the IC50 [6] was 20.2 µM and the IC50 [7] was 9.84 µM. The IC50 [8] was 24.9 µM and the IC50 [9] was 31.5 µM.
With `Cn1cc[nH]c1=S` [METHIMAZOLE] the IC50 [18] was 0.51 µM.
`Cn1ccn(C)c1=[Se]` gave an Activity [19] of 66.5% and an IC50 [20] of 12.2 µM.
Work on `CC[C@@]1(OC(=O)OCc2ccc(O/C=C/[Se]c3ccccc3)cc2)C(=O)OCc2c1cc1n(c2=O)Cc2cc3ccccc3nc2-1` yielded an IC50 at 72 h [21] of 1.18 µM, an IC50 [22] of 0.102 µM and an IC50 at 72 h [23] of 10.2 µM. The IC50 [24] was 0.308 µM and the IC50 [25] was 0.043 µM.
In the case of `NC1=Nc2c(ncn2C[Se]C(CO)CO)C(N)N1` (stereo unspecified), the EC50 [1] is reported as > 100 µM, the EC50 [2] is reported as > 100 µM and the EC50 [3] is reported as > 100 µM. The EC50 [4] was 34.3 µM.
In the case of `N#Cc1cccc(-c2ccc(=O)n(Cc3cccc(-c4ncc([Se]CCCN5CCOCC5)cn4)c3)n2)c1`, the IC50 [26] is reported as 0.029 µM and the IC50 [27] is reported as 0.117 µM.
`CCC(C)n1ncn(-c2ccc(N3CCN(c4ccc(OCC5COC(Cn6cncn6)(c6ccc(Cl)cc6Cl)O5)cc4)CC3)cc2)c1=O` (stereo unspecified) [ITRACONAZOLE] gave an MIC [28] of 0.03 µg/mL (≈ 0.0425 µM), an MIC [29] of 0.5 µg/mL (≈ 0.709 µM) and an MIC [11] of 8 µg/mL (≈ 11.3 µM). It also gave an MIC [30] of 2 µg/mL (≈ 2.83 µM), an MIC [31] of 0.5 µg/mL (≈ 0.709 µM) and an MIC [32] of 0.06 µg/mL (≈ 0.085 µM). The MIC [33] was 0.5 µg/mL (≈ 0.709 µM), the MIC [34] was 0.25 µg/mL (≈ 0.354 µM) and the MIC [14] was > 128 µg/mL. For the same compound, the MIC [35] was 0.25 µg/mL (≈ 0.354 µM), the MIC [15] was > 128 µg/mL and the MIC [16] was > 128 µg/mL. For the same compound, the MIC [17] was > 128 µg/mL.
With `NC1=Nc2c(ncn2C[Se]CCO)C(N)N1` (stereo unspecified) the EC50 [1] was > 100 µM, the EC50 [2] was 32.2 µM and the EC50 [3] was 15.4 µM. For the same compound, the EC50 [4] was > 100 µM.
In the case of `C=Cn1ccn(C)c1=[Se]`, the Activity [19] is reported as 71%.
With `Cc1cc(=O)[nH]c(=S)[nH]1` [METHYLTHIOURACIL] the IC50 [20] was 66.7 µM.
`CN1C=CN(CCn2ccn(C)c2=[Se])C1` gave an Activity [19] of 68.4%.
With `COc1cccc(Cn2ccn(Cc3cccc(OC)c3)c2=S)c1` the IC50 [18] was 137 µM.
For `CC[C@@]1(O)C(=O)OCc2c1cc1n(c2=O)Cc2cc3ccccc3nc2-1` [CAMPTOTHECIN], the IC50 at 72 h [21] was 0.086 µM, the IC50 [22] was 0.021 µM and the IC50 at 72 h [23] was 1.13 µM. It also gave an IC50 [24] of 0.108 µM and an IC50 [25] of 0.011 µM.
For `CNC1NC(N)=Nc2c1ncn2C[Se]CCO` (stereo unspecified), the EC50 [1] was > 100 µM, the EC50 [2] was 17.6 µM and the EC50 [3] was 14.3 µM. The EC50 [4] was > 100 µM.
For `COc1cc2c(c(OC)c1OC)-c1ccc(OC)c(=O)cc1[C@@H](NC(C)=O)CC2` [COLCHICINE], the IC50 at 96 h [12] was 0.045 µg/mL (≈ 0.113 µM).
For `OC(Cn1cncn1)(Cn1cncn1)c1ccc(F)cc1F` [FLUCONAZOLE], the MIC [11] was > 128 µg/mL, the MIC [33] was 2 µg/mL (≈ 6.53 µM) and the MIC [14] was > 128 µg/mL. The MIC [15] was > 128 µg/mL, the MIC [16] was > 128 µg/mL and the MIC [17] was > 128 µg/mL.
In the case of `CN1CCC(COc2cnc(-c3cccc(Cn4nc(-c5cccc(C#N)c5)ccc4=O)c3)nc2)CC1` [TEPOTINIB], the IC50 [26] is reported as 0.016 µM and the IC50 [27] is reported as > 10 µM.
For `COc1cccc(Cn2ccn(C)c2=[Se])c1`, the IC50 [20] was 7.8 µM.
For `N#C[Se]CCOC(=O)CCCC[C@@H]1SC[C@@H]2NC(=O)N[C@@H]21`, the IC50 [5] was 11.8 µM, the IC50 [6] was 14.1 µM and the IC50 [7] was 9.85 µM. For the same compound, the IC50 [8] was 18.6 µM and the IC50 [9] was 77.2 µM.
